Assay results from article PMC4713045 (Cancer research, 2015).
Like-named read-outs stand apart in the source and are kept apart here. One block for each compound: values may come before it.

Tests used:
HEKa = experiment: In vitro transport assay: intracellular drug accumulation in HEKa; assay type: in vitro ADME, human; conditions: for intracellular accumulation / transport in HEKa (in words): kinase inhibitors 1 µM, 5 min
[1] = Plasma pharmacokinetic study of sorafenib; assay type: in vivo, C57BL6 mice; conditions: sorafenib 60 mg/kg oral, single agent, 0 to 6 hours
[2] = tested on: hair follicle growth in mice after depilation; experiment: Wax-depilation hair follicle regrowth study; assay type: in vivo, C57BL6 mice; conditions: twice daily oral
[3] = cited from earlier work
[4] = tested on: A549, 7860, HepG2 and CHRF288-11 cell lines; experiment: In vitro antitumor efficacy of sorafenib with or without probenecid; assay type: cell-based, human; conditions: probenecid 500 µM, sorafenib 0.1 – 100 µM, 72 hours
[5] = tested on: sorafenib uptake in HEKa (OATs; SLC22A); experiment: Inhibition of sorafenib uptake in HEKa by transporter inhibitors; assay type: cell-based, human; conditions: OAT inhibitors 100 µM, sorafenib 1 µM, 15 min
[6] = tested on: sorafenib accumulation in MPEK; experiment: Inhibition of sorafenib accumulation in MPEK by probenecid; assay type: cell-based, mouse; conditions: probenecid 100 µM, sorafenib 1 µM, 15 min
TAK1 = target: T1, TAK1 (Homo sapiens, UniProt O43318); experiment: KiNativ in situ kinome profiling in HEKa, TAK1; assay type: binding; conditions: intact HEKa, 1 hr treatment, clinically-achievable concentration
T1 sequence (O43318 1-606): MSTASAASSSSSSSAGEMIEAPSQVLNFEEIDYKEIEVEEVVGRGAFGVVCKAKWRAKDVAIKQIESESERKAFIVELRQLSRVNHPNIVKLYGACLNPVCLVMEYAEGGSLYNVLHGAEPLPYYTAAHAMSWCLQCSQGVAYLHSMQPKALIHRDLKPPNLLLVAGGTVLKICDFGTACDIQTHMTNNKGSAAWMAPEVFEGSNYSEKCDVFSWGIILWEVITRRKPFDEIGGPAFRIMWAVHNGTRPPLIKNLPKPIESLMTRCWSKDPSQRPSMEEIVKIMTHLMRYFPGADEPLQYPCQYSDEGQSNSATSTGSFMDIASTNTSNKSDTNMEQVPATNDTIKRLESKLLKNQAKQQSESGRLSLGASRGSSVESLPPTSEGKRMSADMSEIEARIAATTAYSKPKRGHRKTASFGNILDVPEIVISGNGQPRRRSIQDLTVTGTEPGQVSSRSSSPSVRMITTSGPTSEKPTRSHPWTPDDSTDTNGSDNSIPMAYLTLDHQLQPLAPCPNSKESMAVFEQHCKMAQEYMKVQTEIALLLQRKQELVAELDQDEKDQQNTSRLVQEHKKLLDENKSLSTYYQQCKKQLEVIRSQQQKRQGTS

[7] = tested on: Human primary keratinocytes (HEKa); experiment: HEKa cell viability

intracellular accumulation / transport in HEKa (in words) (HEKa): highly accumulates
Km (HEKa; read-out: Michaelis-Menten constant (Km) of uptake, HEKa uptake): 7 µM
area under the plasma concentration-time curve (mean ± SEM) [1]: 32500 ± 10900 ng·h/mL
hair growth one week after depilation ([2]; sorafenib 60 mg/kg): hair growth was delayed
SMILES: CNC(=O)c1cc(Oc2ccc(NC(=O)Nc3ccc(Cl)c(C(F)(F)F)c3)cc2)ccn1 [sorafenib]
maximum velocity (Vmax) of uptake (HEKa; HEKa uptake): 20,900 pmol/5min/mg protein
hair follicle histology (day 14, H&E) ([2]; sorafenib 60 mg/kg): reduced melanin and a gross disruption in morphology
hair growth and pigmentation at two weeks ([2]; sorafenib 60 mg/kg or imatinib 100 mg/kg): hair was less dense and lacked pigmentation
permeability (in words) [3]: poorly permeable

SMILES: CCCN(CCC)S(=O)(=O)c1ccc(C(=O)O)cc1 [probenecid]
influence of probenecid on cytotoxic effects of sorafenib [4]: did not antagonize the cytotoxic effects of sorafenib
sensitivity of sorafenib uptake to inhibitor [5]: sensitivity of sorafenib uptake
sensitivity of sorafenib accumulation to probenecid [6]: sensitive to probenecid

affinity for TAK1 in HEKa by in situ kinome profiling (in words) (TAK1): low affinity
SMILES: Cc1nc(Nc2ncc(C(=O)Nc3c(C)cccc3Cl)s2)cc(N2CCN(CCO)CC2)n1 [dasatinib]

affinity for TAK1 in HEKa by in situ kinome profiling (in words) (TAK1): high affinity
SMILES: CCN(CC)CCNC(=O)c1c(C)[nH]c(/C=C2\C(=O)Nc3ccc(F)cc32)c1C [sunitinib]
cell viability / cytotoxicity against HEKa (in words) [7]: induces cytotoxicity against HEKa

SMILES: CNC(=O)c1cc(Oc2ccc(NC(=O)Nc3ccc(Cl)c(C(F)(F)F)c3)cc2)cc[n+]1[O-] [sorafenib N-oxide]
intracellular accumulation / transport in HEKa (in words) (HEKa): temperature- and time-dependent transport
cell viability / cytotoxicity against HEKa (in words) ([7]; HEKa, 72 h): cytotoxicity against HEKa

SMILES: C[N+]1(C)CCOC(O)(c2ccc(-c3ccc(C4(O)C[N+](C)(C)CCO4)cc3)cc2)C1.[Br-].[Br-] (centres unmarked) [hemicholinum-3]
sensitivity of sorafenib uptake to inhibitor [5]: sensitivity of sorafenib uptake

SMILES: Cc1ccc(NC(=O)c2ccc(CN3CCN(C)CC3)cc2)cc1Nc1nccc(-c2cccnc2)n1 [imatinib]
cell viability / cytotoxicity against HEKa (in words) ([7]; HEKa, 72 h): not sensitive

SMILES: COc1cc(CC(=O)O)ccc1O [homovanillic acid]
sensitivity of sorafenib uptake to inhibitor [5]: sensitivity of sorafenib uptake

SMILES: COc1cc(O)c2c(c1)/C=C/C[C@H](O)[C@H](O)C(=O)/C=C\C[C@H](C)OC2=O [(5z)-7-oxozeaenol]
cell viability / cytotoxicity against HEKa (in words) ([7]; HEKa, 72 h): dose-dependently reduced cell viability
